Where a name gives a salt, the structure may show the parent alone. Read-outs that look alike come from different tables or passages of the source.
Biological target: T1, CDK9/cyclin K (Homo sapiens, UniProt P50750)
T1 construct: purchased Invitrogen (ThermoFisher) PV4335
Assay: TR-FRET Lanthascreen Eu Kinase Binding assay
Settings: for Curve Class: classifies curves by quality of fit, efficacy and number of asymptotes; for Efficacy: difference between highest and lowest activity across concentration range; for Efficacy / Max Resp: in %
Description: The TR-FRET Lanthascreen Eu Kinase Binding assay for CDK9/cyclin K was purchased from ThermoFisher and performed as per manufacturer instructions.

[1] = logarithm of AC50, read-out: Log AC50 (converted)

T1 sequence (P50750 whole entry): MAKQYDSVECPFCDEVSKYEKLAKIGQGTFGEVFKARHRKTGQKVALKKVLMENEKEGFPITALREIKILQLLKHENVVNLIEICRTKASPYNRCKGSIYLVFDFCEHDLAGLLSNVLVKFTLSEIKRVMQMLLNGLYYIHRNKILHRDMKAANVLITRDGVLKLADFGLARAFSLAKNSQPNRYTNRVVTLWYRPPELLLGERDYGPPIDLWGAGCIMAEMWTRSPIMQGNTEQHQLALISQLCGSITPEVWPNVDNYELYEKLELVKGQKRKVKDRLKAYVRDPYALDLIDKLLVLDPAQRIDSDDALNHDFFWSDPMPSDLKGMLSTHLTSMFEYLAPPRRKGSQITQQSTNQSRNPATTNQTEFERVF
T1 sequence (O75909 whole entry partner): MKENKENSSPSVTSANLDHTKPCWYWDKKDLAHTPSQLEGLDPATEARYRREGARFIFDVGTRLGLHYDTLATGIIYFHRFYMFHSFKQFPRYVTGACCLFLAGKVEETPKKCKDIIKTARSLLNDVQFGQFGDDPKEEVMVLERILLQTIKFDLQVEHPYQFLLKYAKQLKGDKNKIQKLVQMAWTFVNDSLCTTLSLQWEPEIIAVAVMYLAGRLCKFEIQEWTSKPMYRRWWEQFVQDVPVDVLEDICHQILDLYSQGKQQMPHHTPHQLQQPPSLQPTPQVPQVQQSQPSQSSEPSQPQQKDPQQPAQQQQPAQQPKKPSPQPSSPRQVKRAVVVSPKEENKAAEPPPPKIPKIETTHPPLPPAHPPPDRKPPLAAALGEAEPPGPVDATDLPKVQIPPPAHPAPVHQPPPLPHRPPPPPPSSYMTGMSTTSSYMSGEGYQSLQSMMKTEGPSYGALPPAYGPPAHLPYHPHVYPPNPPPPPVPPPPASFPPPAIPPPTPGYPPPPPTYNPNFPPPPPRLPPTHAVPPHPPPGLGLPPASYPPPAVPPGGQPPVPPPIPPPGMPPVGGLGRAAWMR

Q: O=C(Nc1c[nH]nc1-c1nc2ccc(CN3CCOCC3)cc2[nH]1)NC1CC1 [AT9283] was tested. Which “Curve Class” value did it give?
A: -1.1

Q: And the Efficacy?
A: -93.9

Q: What about the “Max Resp” value of the same compound?
A: -97.0

Q: For CN1CC[C@@H](c2c(O)cc(O)c3c(=O)cc(-c4ccc(C(F)(F)F)cc4Cl)oc23)[C@@H]1CO [Voruciclib], which “Curve Class” value is on record?
A: -1.1

Q: And the Efficacy?
A: -95.6

Q: What about the “Max Resp” value of the same compound?
A: -95.8

Q: For COc1ccc(-c2oc3ncnc(N)c3c2-c2ccc(NC(=O)Nc3cc(C(F)(F)F)ccc3F)cc2)cc1 [GW768505A], which “Curve Class” value is on record?
A: -1.1

Q: And the Efficacy?
A: -85.9

Q: And the “Max Resp” value?
A: -78.2

Q: What about the AC50 [1] of the same compound?
A: 631 nM

Q: Which results are given for NS(=O)(=O)c1ccc(NN=C2C(=O)Nc3ccc(Br)cc32)cc1 [Cdk2 Inhibitor II]?
A: Curve Class: -1.2; Efficacy: -67.2; Max Resp: -64.7

Q: What does the source list for Cc1ccc([N+](=O)[O-])cc1[S+](=O)([O-])N(C)/N=C\c1cnc2ccc(Br)cn12 [NCGC00387028-01, PIK-75]?
A: Curve Class: 5; Efficacy: 0.0; Max Resp: -93.4

Q: Which results are given for CN1CCC(c2c(O)cc(O)c3c(=O)cc(-c4ccccc4Cl)oc23)C1CO (stereo not drawn) [Compound P276-00, P276-00]?
A: Curve Class: -1.2; Efficacy: -60.7; Max Resp: -99.0

Q: With O=C1Nc2ccc(F)cc2/C1=C1\Nc2ccccc2\C1=N\O [5 -Fluoroindirubinoxime] as the compound, how does the “Curve Class” value read?
A: -1.1

Q: What about the Efficacy of the same compound?
A: -80.2

Q: And the “Max Resp” value?
A: -86.1

Q: How did the “Curve Class” value turn out when Nc1nc(Nc2ccc(S(N)(=O)=O)cc2)nn1C(=O)c1c(F)cccc1F [JNJ7706621] was run?
A: -1.1

Q: And the Efficacy?
A: -93.4

Q: And the “Max Resp” value?
A: -97.5

Q: What does the source list for O=C1NC(=O)C(c2cnc3ccccn23)=C1c1cn2c3c(cc(F)cc13)CN(C(=O)N1CCCCC1)CC2 [LY2090314]?
A: Curve Class: -1.1; Efficacy: -79.5; Max Resp: -83.9; AC50 [1]: 631 nM

Q: For O=C1NCCSc2c1sc1ccc(O)cc21 [kb-NB142-70], which “Curve Class” value is on record?
A: -1.1

Q: What about the Efficacy of the same compound?
A: -82.7

Q: What about the “Max Resp” value of the same compound?
A: -91.1

Q: For COc1ccc(F)c(F)c1C(=O)c1cnc(NC2CCN([S+](C)(=O)[O-])CC2)nc1N [Compound R547, R547], which “Curve Class” value is on record?
A: 5

Q: And the Efficacy?
A: -13.4

Q: And the “Max Resp” value?
A: -94.3

Q: O=C(NCc1cccc(O)c1)Nc1nc(-c2ccncc2)cs1 [RKI-1447] was tested. Which “Curve Class” value did it give?
A: -1.2

Q: And the Efficacy?
A: -64.8

Q: And the “Max Resp” value?
A: -59.5

Q: Which results are given for N#C/C(=C1\Nc2ccccc2S1)c1ccnc(NCCc2cccnc2)n1 [AS601245]?
A: Curve Class: -1.2; Efficacy: -79.8; Max Resp: -85.8

Q: For CC(C)c1cnn2c(NCc3ccccc3)cc(N[C@@H](CO)[C@H](O)CO)nc12 [BS194], which “Curve Class” value is on record?
A: -1.1

Q: What about the Efficacy of the same compound?
A: -108.2

Q: What about the “Max Resp” value of the same compound?
A: -95.8

Q: For O=C(O)c1ccc2c(c1)nc(Nc1cccc(Cl)c1)c1ccncc12 [CX-4945 (sodium salt)], which “Curve Class” value is on record?
A: -1.1

Q: What about the Efficacy of the same compound?
A: -98.0

Q: And the “Max Resp” value?
A: -93.5

Q: Which “Curve Class” value does the source give for Cc1ccc([N+](=O)[O-])cc1[S+](=O)([O-])N(C)/N=C/c1cnc2ccc(Br)cn12 [NCGC00346500-05, PIK-75] here?
A: 5

Q: And the Efficacy?
A: -24.5

Q: What about the “Max Resp” value of the same compound?
A: -95.2

Q: Which results are given for Cc1cc(Nc2cc(NC(=O)c3c(Cl)cccc3Cl)ccn2)nc(N)n1 [RO495]?
A: Curve Class: -1.1; Efficacy: -93.8; Max Resp: -99.1

Q: Which results are given for NC(=O)c1ccccc1Nc1ccnc(Nc2cccc(O)c2)n1 [DB07268]?
A: Curve Class: -1.1; Efficacy: -100.7; Max Resp: -97.2

Q: Which results are given for C[C@@H](Oc1ccc2[nH]nc(/C=C/c3cnn(CCO)c3)c2c1)c1c(Cl)cncc1Cl [LY2874455]?
A: Curve Class: -1.1; AC50 (concentration at which half maximal activity is observed, 7-point qHTS, read-out: AC50): 299 nM; Efficacy: -87.6; Max Resp: -91.8

Q: COc1ccc2c(NC(=O)Nc3cccc(C(F)(F)F)n3)ccnc2c1 [A 1070722] was tested. Which “Curve Class” value did it give?
A: -1.4

Q: What about the Efficacy of the same compound?
A: -58.3

Q: What about the “Max Resp” value of the same compound?
A: -64.1

Q: What does the source list for O=C(NCCCNc1nc(Nc2cccc(NC(=O)N3CCCC3)c2)ncc1I)c1cccs1 [BX-795 hydrochloride]?
A: Curve Class: -1.1; Efficacy: -99.6; Max Resp: 5.8
